Reference: patent US6706709B2, “Indolinone derivatives as protein kinase/phosphatase inhibitors” (Sugen, Inc., priority 2000, dated 2004)

Experiments:
EGF Receptor = target: T1, EGF Receptor (Homo sapiens, UniProt P00533); test: bio EGF (EGF Receptor ELISA); type: biochemical
T1 construct: expressed in transfected cells; host or cells: NIH 3T3/C7 (mouse fibroblasts engineered to express human EGF-R)
Protocol: EGF Receptor kinase activity in cells genetically engineered to express human EGF-R was measured as described below:
The following materials and reagents were used:
b. 05-101 (UBI) (a monoclonal antibody recognizing an EGFR extracellular domain).
c. Anti-phosphotyrosine antibody (anti-Ptyr) (polyclonal).
d. Detection antibody: Goat anti-rabbit lgG horse radish peroxidase conjugate, TAGO, Inc., Burlingame, Calif.
Keep solution in dark at 4° C. until used.
The following protocol was used:
1. […] Coated plates are good for up to 10 days when stored at 4° C.
2. On day of use, remove coating buffer and replace with blocking buffer (5% Carnation Instant Non-Fat Dry Milk in PBS). Incubate the plate, shaking, at room temperature (about 23° C. to 25° C.) for 30 minutes. Just prior to use, remove blocking buffer and wash plate 4 times with TBST buffer.
2. Choose dishes having 80-90% confluence for the experiment. Trypsinize cells and stop reaction by adding 10% CS DMEM medium. Suspend cells in DMEM medium (10% CS DMEM medium) and centrifuge once at 1000 rpm at room temperature for 5 minutes.
3. Resuspend cells in seeding medium (DMEM, 0.5% bovine serum), and count the cells using trypan blue. Viability above 90% is acceptable. Seed cells in DMEM medium (0.5% bovine serum) at a density of 10,000 cells per well, 100 μL per well, in a 96 well microtiter plate. Incubate seeded cells in 5% CO2 at 37° C. for about 40 hours.
1. Check seeded cells for contamination using an inverted microscope. Dilute drug stock (10 mg/ml in DMSO) 1:10 in DMEM medium, then transfer 5 μL to a test well for a final drug dilution of 1:200 and a final DMSO concentration of 1%. Control wells receive DMSO alone. Incubate in 5% CO2 at 37° C. for one hour.
2. Prepare EGF ligand: dilute stock EGF in DMEM so that upon transfer of 10 μL dilute EGF (1:12 dilution), 25 nM final concentration is attained.
3. Prepare fresh 10 ml HNTG* sufficient for 100 μL per well wherein HNTG* comprises: HNTG stock (2.0 mL), milli-Q H2O (7.3 mL), EDTA, 100 mM, pH 7.0 (0.5 mL), Na3VO4 0.5 M (0.1 mL) and Na4(P2O7), 0.2 M (0.1 mL).
5. After two hours incubation with drug, add prepared EGF ligand to cells, 10 μL per well, to yield a final concentration of 25 nM. Control wells receive DMEM alone. Incubate, shaking, at room temperature, for 5 minutes.
6. Remove drug, EGF, and DMEM. Wash cells twice with PBS. Transfer HNTG* to cells, 100 μL per well. Place on ice for 5 minutes. Meanwhile, remove blocking buffer from other ELISA plate and wash with TBST as described above.
7. With a pipette tip securely fitted to a micropipettor, scrape cells from plate and homogenize cell material by repeatedly aspirating and dispensing the HNTG* lysis buffer. Transfer lysate to a coated, blocked, and washed ELISA plate. Incubate shaking at room temperature for one hour.
8. Remove lysate and wash 4 times with TBST. Transfer freshly diluted anti-Ptyr antibody to ELISA plate at 100 μL per well. Incubate shaking at room temperature for 30 minutes in the presence of the anti-Ptyr antiserum (1:3000 dilution in TBST).
9. Remove the anti-Ptyr antibody and wash 4 times with TBST. Transfer the freshly diluted TAGO 30 anti-rabbit IgG antibody to the ELISA plate at 100 μL per well. Incubate shaking at room temperature for 30 minutes (anti-rabbit IgG antibody: 1:3000 dilution in TBST).
10. Remove detection antibody and wash 4 times with TBST. Transfer freshly prepared ABTS/H2O2 solution to ELISA plate, 100 μL per well. Incubate at room temperature for 20 minutes. ABTS/H2O2 solution: 1.2 μL 30% H2O2in 10 mL ABTS stock.
11. Stop reaction by adding 50 μL 5N H2SO4 (optional), and determine O.D. at 410 nm.
12. The maximal phosphotyrosine signal is determined by subtracting the value of the negative controls from the positive controls. The percent inhibition of phosphotyrosine content for extract-containing wells is then calculated, after subtraction of the negative controls.

GST-Flk1 = GST-Flk1 (UniProt P35918); test: GST-FLK-1 bioassay (bio flkGST); type: biochemical
Protocol: This assay analyzes the tyrosine kinase activity of GST-Flk1 on poly glu tyr peptides.
2. poly glu tyr 4:1, lyophilizate (Sigma Catalog # P0275). Prepare 1 mg/mL poly glu tyr in sterile PBS and store in 1 ml aliquots at −20° C.
3. Preparation of poly glu tyr (pEY) coated assay plates: Coat 2 μg/well of poly glu tyr (pEY) in 100 μL PBS at room temperature for 2 hours or at +4° C. overnight. Cover plates well to prevent evaporation.
4. PBS Buffer: To make 1 liter of a 1× working solution, mix […], 1.15 g NA2HPO4, 0.2 g KCl and 8 g NaCl in approx. 900 mL dH2O. When all reagents have dissolved, adjust the pH to 7.2 with HCl. Bring total volume to 1L with dH2O.
5. PBS-Tw Buffer: To 1L of PBS Buffer, add […] Tween-20. Stir until dissolved.
6. TBB-Blocking Buffer: To make one liter of a 1× working solution, mix 1.21 g TRIS, 8.77 g NaCl, 1 mL TWEEN-20 in approximately 900 mL dH2O. Adjust pH to 7.2 with HCl. Add 10 g BSA, stir to dissolve. Bring total volume to 1 L with dH2O. Filter to remove particulate matter.
7. 1% BSA in PBS: To make a 1× working solution, add 10 g BSA to approx. 990 mL PBS buffer, stir to dissolve. Adjust total volume to 1 L with PBS buffer, filter to remove particulate matter.
9. GST-Flk1cd purified from sf9 recombinant baculovirus transformation.
13. Kinase Dilution Buffer (KDB): Mix 10 mL Hepes (pH 7.5), 1 mL of 5 M NaCl, 40 μL of 100 mM NaVO4 and 0.4 mL of 5% BSA in dH2O with 88.56 mL of dH2O.
14. NUNC-96-well V bottom polypropylene plates Applied Scientific Catalog # AS-72092
15. EDTA: Mix 14.12 g ethylenediaminetetraacetic acid (EDTA) to approx. 70 mL dH2O. Add 10N NaOH until EDTA dissolves. Adjust pH to 8.0. Adjust total volume to 100 mL with dH2O.
16. 1° Antibody Dilution Buffer: Mix 10 mL of 5% BSA in PBS buffer with 89.5 mL TBSTw.
17. Anti-phosphotyrosine monoclonal conjugated to horseradish peroxidase (PY99 HRP, Santa Cruz Biotech).
18. 2,2′-Azino-bis(3-ethylbenzthiazoline-6-sulfonic acid (ABTS, Moss, Cat. No. ABST).
1. Coat Corning 96 well ELISA plates with 2 μg of polyEY peptide in sterile PBS as described in step 3 of Materials and Reagents.
2. Remove unbound liquid from wells by inverting plate. Wash once with TBSTw. Pat the plate on a paper towel to remove excess liquid.
3. Add 100 μL of 1% BSA in PBS to each well. Incubate, with shaking, for 1 hr. at room temperature.
5. Soak wells with 50 mM Hepes pH7.5 (150 μL/well).
6. Dilute test compound with dH2O/4% DMSO to 4 times the desired final assay concentration in 96-well polypropylene plates.
7. Add 25 μL diluted test compound to ELISA plate.
8. Add 25 μL of 40 mM MnCl2 with 4×ATP (2 μM) to all wells.
9. Add 25 μL 0.5 M EDTA to negative control wells.
10. Dilute GST-Flk1 0.005 μg (5 ng)/well in KDB. For 50 ml KDB add 100 μL of 0.050 mg/mL GST-Flk1 enzyme.
11. Add 50 μL of diluted enzyme to each well.
12. Incubate, with shaking, for 15 minutes at room temperature.
13. Stop reaction by adding 50 μL of 250 mM EDTA (pH 8.0).
14. Wash 3× with TBSTw and pat plate on paper towel to remove excess liquid.
15. Add 100 μL per well anti-phosphotyrosine HRP conjugate, 1:5,000 dilution in antibody dilution buffer. Incubate, with shaking for 90 min. at room temperature.
16. Wash as described above in step 14.
17. Add 100 μL of room temperature ABTS solution to each well.
18. Incubate, with shaking, for 10 to 15 minutes. Remove any bubbles.
19. Stop reaction by adding 20 μL of 10% SDS.
20. Read assay on Dynatech MR7000 ELISA reader: test filter at 410 nM; reference filter at 630 nM.

T1 sequence (P00533 25-1210): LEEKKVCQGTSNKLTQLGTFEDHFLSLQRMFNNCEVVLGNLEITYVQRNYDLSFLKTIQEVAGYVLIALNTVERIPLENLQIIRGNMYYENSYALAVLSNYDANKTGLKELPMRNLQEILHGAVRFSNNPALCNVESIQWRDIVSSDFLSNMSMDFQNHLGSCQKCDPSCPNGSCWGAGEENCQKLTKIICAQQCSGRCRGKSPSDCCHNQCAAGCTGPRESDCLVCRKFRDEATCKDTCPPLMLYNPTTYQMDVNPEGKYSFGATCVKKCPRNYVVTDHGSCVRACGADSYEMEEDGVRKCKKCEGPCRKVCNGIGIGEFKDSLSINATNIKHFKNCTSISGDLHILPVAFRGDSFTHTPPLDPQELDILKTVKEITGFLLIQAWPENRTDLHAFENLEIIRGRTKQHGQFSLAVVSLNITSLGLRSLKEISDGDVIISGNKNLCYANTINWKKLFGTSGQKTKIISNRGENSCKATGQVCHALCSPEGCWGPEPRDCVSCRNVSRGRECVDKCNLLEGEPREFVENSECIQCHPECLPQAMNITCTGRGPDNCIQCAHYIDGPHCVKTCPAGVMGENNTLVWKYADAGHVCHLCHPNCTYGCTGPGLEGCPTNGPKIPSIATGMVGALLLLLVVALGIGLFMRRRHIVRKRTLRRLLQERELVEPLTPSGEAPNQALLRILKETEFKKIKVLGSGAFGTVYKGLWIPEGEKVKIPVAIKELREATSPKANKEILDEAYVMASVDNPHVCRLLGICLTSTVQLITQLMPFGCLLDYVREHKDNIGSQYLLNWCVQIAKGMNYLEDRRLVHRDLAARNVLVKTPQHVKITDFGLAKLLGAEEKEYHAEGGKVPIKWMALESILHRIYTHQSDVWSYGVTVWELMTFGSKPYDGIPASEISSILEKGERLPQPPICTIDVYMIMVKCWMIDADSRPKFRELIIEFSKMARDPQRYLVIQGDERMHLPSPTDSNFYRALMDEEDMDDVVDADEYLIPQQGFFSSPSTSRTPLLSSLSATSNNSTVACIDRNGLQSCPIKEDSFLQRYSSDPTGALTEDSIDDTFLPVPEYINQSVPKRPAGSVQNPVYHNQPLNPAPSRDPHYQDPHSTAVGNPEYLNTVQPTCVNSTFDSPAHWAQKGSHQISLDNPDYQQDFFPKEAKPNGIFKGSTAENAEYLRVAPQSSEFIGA

| Structure (SMILES) | IC50 (EGF Receptor) [µM] | IC50 (GST-Flk1) [µM] |
| --- | --- | --- |
| CCN(CC)CCOc1ccc2[nH]c(C=C3C(=O)Nc4ccccc43)cc2c1 [IN-016, 3-[5-(2-diethylamino-ethoxy)-1H-indol-2-ylmethylene]-1,3-dihydro-indol-2-one] | > 10 | 0.05 |
| CCN(CC)CCOc1ccc2[nH]c(C=C3C(=O)Nc4ccc(Br)cc43)cc2c1 [IN-017, 5-bromo-3-[5-(2-diethylamino-ethoxy)-1H-indol-2-ylmethylene]-1,3-dihydro-indol-2-one] | 4.67 | 0.01 |
| CCN(CC)CCOc1ccc2[nH]c(C=C3C(=O)Nc4cc(-c5ccccc5)ccc43)cc2c1 [IN-018, 3-[5-(2-diethylamino-ethoxy)-1H-indol-2-ylmethylene]-6-phenyl-1,3-dihydro-indol-2-one] | > 100 | 5.41 |
| CCN(CC)CCOc1ccc2[nH]c(C=C3C(=O)Nc4ccc(-c5ccccc5)cc43)cc2c1 [IN-019, 3-[5-(2-diethylamino-ethoxy)-1H-indol-2-ylmethylene]-5-phenyl-1,3-dihydro-indol-2-one] | 9.55 | 0.16 |
| O=C1Nc2ccc(C(=O)O)cc2C1=Cc1cc2cc(OCCN3CCCC3)ccc2[nH]1 [IN-022, 2-oxo-3-[5-(2-pyrrolidin-1-yl-ethoxy)-1H-indol-2-ylmethylene]-2,3-dihydro-1H-indole-5-carboxylic acid] | > 20 | 0.14 |
| O=C1Nc2cc(C(=O)O)ccc2C1=Cc1cc2cc(OCCN3CCCC3)ccc2[nH]1 [IN-023, 2-oxo-3-[5-(2-pyrrolidin-1-yl-ethoxy)-1H-indol-2-ylmethylene]-2,3-dihydro-1H-indole-6-carboxylic acid] | > 20 | 0.24 |
| O=C1Nc2cccc(CCO)c2C1=Cc1cc2cc(OCCN3CCCC3)ccc2[nH]1 [IN-024, 4-(2-hydroxy-ethyl)-3-[5-(2-pyrrolidin-1-yl-ethoxy)-1H-indol-2-ylmethylene]-1,3-dihydro-indol-2-one] | > 20 | < 0.01 |
| O=C1Nc2cc(-c3cccnc3)ccc2C1=Cc1cc2cc(OCCN3CCCC3)ccc2[nH]1 [IN-025, 6-pyridin-3-yl-3-[5-(2-pyrrolidin-1-yl-ethoxy)-1H-indol-2-ylmethylene]-1,3-dihydro-indol-2-one] | > 20 | 0.14 |
| COc1ccc(-c2ccc3c(c2)NC(=O)C3=Cc2cc3cc(OCCN4CCCC4)ccc3[nH]2)cc1 [IN-026, 6-(4-methoxy-phenyl)-3-[5-(2-pyrrolidin-1-yl-ethoxy)-1H-indol-2-ylmethylene]-1,3-dihydro-indol-2-one] | > 20 | 0.76 |
| COc1cccc(-c2ccc3c(c2)NC(=O)C3=Cc2cc3cc(OCCN4CCCC4)ccc3[nH]2)c1 [IN-027, 6-(3-methoxy-phenyl)-3-[5-(2-pyrrolidin-1-yl-ethoxy)-1H-indol-2-ylmethylene]-1,3-dihydro-indol-2-one] | > 20 | 2.01 |
| COc1ccccc1-c1ccc2c(c1)NC(=O)C2=Cc1cc2cc(OCCN3CCCC3)ccc2[nH]1 [IN-028, 6-(2-methoxy-phenyl)-3-[5-(2-pyrrolidin-1-yl-ethoxy)-1H-indol-2-ylmethylene]-1,3-dihydro-indol-2-one] | 6.06 | 0.66 |
| O=C1Nc2cc(-c3ccc(F)cc3)ccc2C1=Cc1cc2cc(OCCN3CCCC3)ccc2[nH]1 [IN-029, 6-(4-fluoro-phenyl)-3-[5-(2-pyrrolidin-1-yl-ethoxy)-1H-indol-2-ylmethylene]-1,3-dihydro-indol-2-one] | > 20 | 0.76 |
| O=C1Nc2ccc(C(=O)O)cc2C1=Cc1cc2cc(OCCN3CCOCC3)ccc2[nH]1 [IN-030, 3-[5-(2-morpholin-4-yl-ethoxy)-1H-indol-2-ylmethylene]-2-oxo-2,3-dihydro-1H-indole-5-carboxylic acid] | > 20 | < 0.009 |
| O=C1Nc2cc(C(=O)O)ccc2C1=Cc1cc2cc(OCCN3CCOCC3)ccc2[nH]1 [IN-031, 3-[5-(2-morpholin-4-yl-ethoxy)-1H-indol-2-ylmethylene]-2-oxo-2,3-dihydro-1H-indole-6-carboxylic acid] | > 20 | 0.53 |
